According to patent publication US20040147562A1, “Methods of treating conditions associated with an EDG-1 receptor” (priority 2002, published 2004):
Where two headings read alike, the source gives them in different places. Values belong to the molecule of their own block, whether it stands above or below them.

Experiments:
human Edg-1 receptors [1] = assay: Intracellular calcium (FLIPR) assay, HTC cells expressing Edg-1; type: cell-based; settings: Edg-1 relative to other Edg receptors, inhibition (Table 2)
Procedure: (§1) The compounds were tested in HTC cells expressing human Edg-1 receptors. […] The compounds were tested in this recombinant system first, and subsequently tested in cell lines expressing Edg-1 (in addition to other Edg receptors).
(§2) […] receptors such as Edg-1, couple to calcium effector pathways, and result in increases in intracellular calcium following receptor activation (An, 1998, J. Cell Biochem. Supp 30-31:147-157). This biological response lends itself to a very efficient, high-throughput screen using a Fluorescence Imaging Plate Reader (FLIPR; Molecular Devices, Sunnyvale, Calif.). The FLIPR system is a real-time, cell-based assay system with continuous fluorescence detection using a cooled CCD camera. The FLIPR system was used to develop an Edg-1 receptor screen. Rat hepatoma cells stably expressing Edg-1/3i3 chimera or Edg-1 and Gqi were plated on 384-well plates and loaded with a calcium dye loading kit (Molecular Devices, Sunnyvale, Calif.) for 1 hour at room temperature. Cells were then placed on the FLIPR^384 (Molecular Devices, Sunnyvale, Calif.) and excited by an argon laser at 488 nm. The data for the entire 384-well plate was updated every second. An integrated robotic pipettor allowed for simultaneous compound addition into each individual well in the plate.

Edg-5 = target: T1, Edg-5 (Homo sapiens, UniProt O95136); assay: Intracellular calcium (FLIPR) assay, HTC cells expressing Edg-5; type: cell-based; settings: Table 2; S1P-stimulated
T1 construct: expressed in transfected cells; host or cells: HTC rat hepatoma cells

Edg-6 = target: T2, Edg-6 (Homo sapiens, UniProt O95977); assay: Intracellular calcium (FLIPR) assay, HTC cells expressing Edg-6; type: cell-based; settings: Table 2; S1P-stimulated
T2 construct: expressed in transfected cells; host or cells: HTC rat hepatoma cells
T2 sequence (O95977 1-384): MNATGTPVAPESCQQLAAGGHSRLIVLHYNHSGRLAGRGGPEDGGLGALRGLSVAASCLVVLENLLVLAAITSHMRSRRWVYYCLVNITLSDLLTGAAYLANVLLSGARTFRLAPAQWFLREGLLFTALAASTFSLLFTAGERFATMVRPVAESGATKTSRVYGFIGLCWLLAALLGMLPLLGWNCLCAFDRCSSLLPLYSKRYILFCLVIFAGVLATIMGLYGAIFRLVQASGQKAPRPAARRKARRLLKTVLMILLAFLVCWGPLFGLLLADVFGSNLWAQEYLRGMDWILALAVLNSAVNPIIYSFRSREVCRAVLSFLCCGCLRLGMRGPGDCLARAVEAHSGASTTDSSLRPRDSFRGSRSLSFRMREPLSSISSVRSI

Edg-7 = target: T3, Edg-7 (Homo sapiens, UniProt Q9UBY5); assay: Intracellular calcium (FLIPR) assay, HTC cells expressing Edg-7; type: cell-based; settings: Table 2; LPA-stimulated
T3 construct: expressed in transfected cells; host or cells: HTC rat hepatoma cells
T3 sequence (Q9UBY5 1-353): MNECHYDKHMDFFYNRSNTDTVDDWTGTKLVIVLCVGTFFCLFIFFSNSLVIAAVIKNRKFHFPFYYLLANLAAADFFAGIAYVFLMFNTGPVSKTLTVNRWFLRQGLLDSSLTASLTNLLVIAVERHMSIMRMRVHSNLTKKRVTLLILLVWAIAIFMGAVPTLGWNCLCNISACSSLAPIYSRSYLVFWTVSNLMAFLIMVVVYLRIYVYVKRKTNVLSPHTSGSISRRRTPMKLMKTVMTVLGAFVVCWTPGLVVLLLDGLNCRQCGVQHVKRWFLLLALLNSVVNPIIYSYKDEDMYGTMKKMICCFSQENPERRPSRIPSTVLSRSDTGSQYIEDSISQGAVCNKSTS

Edg-3 = target: T4, Edg-3 (Homo sapiens, UniProt Q99500); assay: Intracellular calcium (FLIPR) assay, HTC cells expressing Edg-3; type: cell-based; settings: Table 2; S1P-stimulated
T4 construct: expressed in transfected cells; host or cells: HTC rat hepatoma cells

human Edg-1 receptors [2] = target: human Edg-1 receptors (Homo sapiens, UniProt P21453); assay: Intracellular calcium (FLIPR) assay, HTC cells expressing Edg-1; type: cell-based; design: Edg 1 IC50 μM; fused on or other part: in the chimera reading: the third intracellular loop (i3) of Edg-3 (S1PR3) in place of Edg-1's own
Procedure: as §1, §2

Edg-8 = target: T5, Edg-8 (Homo sapiens, UniProt Q9H228); assay: Intracellular calcium (FLIPR) assay, HTC cells expressing Edg-8; type: cell-based; settings: Table 2; S1P-stimulated
T5 construct: expressed in transfected cells; host or cells: HTC rat hepatoma cells

Edg-2 = target: T6, Edg-2 (Homo sapiens, UniProt Q92633); assay: Intracellular calcium (FLIPR) assay, HTC cells expressing Edg-2; type: cell-based; settings: Table 2; LPA-stimulated
T6 construct: expressed in transfected cells; host or cells: HTC rat hepatoma cells

Edg-4 = Edg-4 (Homo sapiens, UniProt Q9HBW0); assay: Intracellular calcium (FLIPR) assay, HTC cells expressing Edg-4; type: cell-based; settings: Table 2; LPA-stimulated
[3] = test system: human umbilical vein endothelial cells; assay: Trans-matrigel chemotaxis / invasion assay with HUVECs (modified Boyden chamber); type: cell-based; settings: HUVECs, trans-matrigel; FIG. 10
Procedure: In addition to Edg-1, other Edg receptors are also implicated in S1P stimulated chemotaxis, including Edg-3 and Edg-6. To assess the relative roles of the Edg-1 receptors and Edg-3 receptors in S1P stimulated chemotaxis, the ability of S1P to evoke trans-matrigel chemotaxis was tested in the presence of the Edg-1 antagonist 101, the Edg-3 antagonist 301, and the combination of 101 and 301. These experiments were performed according to the migration and invasion assay protocols described in Section 7.12, below. The Edg-3 antagonist 301, 3-Methyl-2-phenyl-quinoline-4-carboxylic acid 4-fluoro-benzylamide, is extensively described in co-pending U.S. application Ser. No. 10/390,426, which is incorporated by reference in its entirety. 301 is identified as compound 101 in U.S. application Ser. No. 10/390,426. Further, 301 is commercially available from Specs (The Netherlands) as compound number AK-968/12971392.
(§3) S1P is a strong chemoattractant to human PBMCs. […] Several migration assays were performed to test this hypothesis and to determine the effect of Edg-1 agonists and antagonists on S1P mediated chemotaxis. The migration assays were performed according to the protocol described in Section 7.12, below. The results of theses assays are presented in FIG. 6, FIG. 7, FIG. 8, FIG. 9 and FIG. 13.
(§4) Cells were plated in a 24 well format using Fluoroblok filter insert plates ([…] pore size) or Fluoroblok matrigel coated filter insert plates (Becton Dickinson, San Diego, Calif.). The assay was a modified Boyden Chamber assay in which a cell suspension (1×10^5 cells/ml) was prepared in serum free medium and added to the top chamber. LPA or S1P (doses ranged from 0.1-10 μM in serum free medium) was added to the bottom chamber. Following a 20-24 hour incubation period, the number of cells migrating or invading into the lower chamber was quantitated by transferring the filter insert into a fresh 24-well plate containing 4 μg/ml calcein AM (Molecular Probes, Sunnyvale, Calif.) in Hank's Balanced Salt Solution and staining for one hour.
(§5) Detection was via fluorescent readout at 450 nm excitation/530 nm emission using a fluorimeter. The level of fluorescence correlated with cell number.

[4] = test system: human peripheral blood mononuclear cells; assay: Migration of human peripheral blood mononuclear cells; type: cell-based; settings: chemoattractant; FIG. 9, 13
Procedure: as §3, §4, §5
Human PBMCs are isolated from the buffy coats of healthy donors from the Stanford Blood Center. […]

mouse T cells = assay: Mouse T cell migration in Transwell chambers with matrigel; type: cell-based; settings: stimulant in bottom chamber; S1P at high concentrations; FIG. 14
Procedure: To further elucidate the role of the Edg-1 receptor in lymphocyte trafficking, migration of mouse T cells was analyzed in both in vitro and in vivo models. Migration of mouse T cells was first tested in Transwell chambers (Costar, Cambridge, Mass.) with polycarbonate fibers having a pore width of 8 μm, separated by a layer of matrigel. Stimulants S1P or exodus-2 were separately added to the bottom chamber. The effects of exodus-2 were tested alone, with S1P, and with S1P and Edg-1 antagonists 101 and 102.

murine CD4 T cells = assay: Murine CD4 T cell chemotactic response to exodus-2; type: cell-based
Procedure: To assess this modulation and to test the effects of Edg-1 agonists and antagonists on this effect, murine CD4 T cells chemotactic responses to exodus-2 were tested in the presence of S1P and the Edg-1 agonist 104. These experiments were performed according to the migration and invasion assay protocols described in Section 7.12, below.
The effects of Edg-1 antagonists on S1P regulation of the chemotactic response to exodus-2 were also assessed. This experiment was performed according to the migration and invasion assay protocols described in Section 7.12, below. […] Thus, these Edg-1 antagonists can antagonize both aspects of the regulation by S1P of exodus-2-mediated chemotaxis.
as §4, §5

[5] = test system: mouse splenic CD4 T cells; assay: Lymphocyte migration in mouse dorsal air-pouch model; type: in vivo; settings: CD4 T cells treated ex vivo, given intraperitoneally, lavage after 24 hours; S1P 1 μM; FIG. 15
Procedure: To test migration of mouse T cells in vivo, the ability of exodus-2 to attract mouse lymphocytes was assessed in the mouse dorsal air-pouch model. In these experiments, 0.5 ml 1 μM exodus-2 was introduced into a dorsal air-pouch produced by injecting 5 ml of filtered air subcutaneously. Mouse splenic CD4 T cells were fluorescently labeled with FM-DiI (Molecular Probes, Inc., Eugene, Oreg.), then treated with S1P (1 μM), 102, or 104. The treated CD4T cells were introduced into the peritoneal cavity. After 24 hours, lavage (1 ml) from the dorsal air pouch was assayed for fluorescence.

[6] = Table 1, Edg-1 modulators, read-out: IC50

Sequence of Edg-4 (Q9HBW0 1-340 limits assumed): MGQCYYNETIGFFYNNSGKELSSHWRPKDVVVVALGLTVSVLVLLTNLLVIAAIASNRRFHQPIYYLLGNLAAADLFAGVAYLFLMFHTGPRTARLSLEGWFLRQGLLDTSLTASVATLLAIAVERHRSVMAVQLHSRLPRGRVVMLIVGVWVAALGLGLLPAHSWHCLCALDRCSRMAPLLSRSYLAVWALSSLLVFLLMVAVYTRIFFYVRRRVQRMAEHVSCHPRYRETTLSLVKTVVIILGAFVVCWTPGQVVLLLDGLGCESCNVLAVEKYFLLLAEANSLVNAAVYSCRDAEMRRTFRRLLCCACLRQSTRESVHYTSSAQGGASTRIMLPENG
T5 sequence (Q9H228 whole entry): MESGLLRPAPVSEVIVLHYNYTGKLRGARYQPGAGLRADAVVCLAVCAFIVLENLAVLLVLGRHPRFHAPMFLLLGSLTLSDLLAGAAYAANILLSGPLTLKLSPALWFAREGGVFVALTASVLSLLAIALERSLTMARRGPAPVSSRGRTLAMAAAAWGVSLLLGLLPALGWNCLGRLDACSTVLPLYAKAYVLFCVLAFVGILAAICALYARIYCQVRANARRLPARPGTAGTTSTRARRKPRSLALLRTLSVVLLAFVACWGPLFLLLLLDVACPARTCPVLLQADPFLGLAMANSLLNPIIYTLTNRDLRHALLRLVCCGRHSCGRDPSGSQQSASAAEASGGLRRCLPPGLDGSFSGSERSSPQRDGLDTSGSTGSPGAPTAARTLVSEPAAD
T6 sequence (Q92633 whole entry): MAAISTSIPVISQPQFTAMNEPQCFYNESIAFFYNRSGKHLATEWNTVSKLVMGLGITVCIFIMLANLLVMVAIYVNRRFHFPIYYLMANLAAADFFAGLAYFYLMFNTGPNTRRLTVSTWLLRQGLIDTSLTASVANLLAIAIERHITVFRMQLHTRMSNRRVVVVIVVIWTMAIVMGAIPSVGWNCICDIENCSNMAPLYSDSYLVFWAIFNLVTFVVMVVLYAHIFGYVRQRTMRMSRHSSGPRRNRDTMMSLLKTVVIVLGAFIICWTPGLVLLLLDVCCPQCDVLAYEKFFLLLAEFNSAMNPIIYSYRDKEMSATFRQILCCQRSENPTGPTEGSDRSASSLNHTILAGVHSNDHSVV
T1 sequence (O95136 whole entry): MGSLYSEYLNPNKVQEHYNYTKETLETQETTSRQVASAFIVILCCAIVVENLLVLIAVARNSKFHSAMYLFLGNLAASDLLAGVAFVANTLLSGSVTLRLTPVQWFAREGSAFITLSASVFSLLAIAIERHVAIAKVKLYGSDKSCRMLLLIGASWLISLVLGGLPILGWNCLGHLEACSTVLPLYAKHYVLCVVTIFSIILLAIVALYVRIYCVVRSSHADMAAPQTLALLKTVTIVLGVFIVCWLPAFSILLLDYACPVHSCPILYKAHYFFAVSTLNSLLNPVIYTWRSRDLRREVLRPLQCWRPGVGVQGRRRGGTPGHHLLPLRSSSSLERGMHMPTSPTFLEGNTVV
T4 sequence (Q99500 whole entry): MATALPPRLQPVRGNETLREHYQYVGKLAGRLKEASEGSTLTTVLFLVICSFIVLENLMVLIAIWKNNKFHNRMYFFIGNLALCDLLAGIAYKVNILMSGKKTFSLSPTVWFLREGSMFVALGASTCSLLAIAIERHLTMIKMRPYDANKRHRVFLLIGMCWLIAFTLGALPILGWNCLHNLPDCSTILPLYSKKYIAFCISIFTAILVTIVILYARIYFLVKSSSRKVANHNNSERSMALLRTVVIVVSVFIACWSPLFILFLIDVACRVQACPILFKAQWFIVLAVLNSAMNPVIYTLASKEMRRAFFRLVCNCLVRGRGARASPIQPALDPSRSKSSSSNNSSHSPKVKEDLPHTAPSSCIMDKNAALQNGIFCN

IC50 (human Edg-1 receptors [2]; [6]): 1.29 µM
Molecule: O=C(c1cccnc1)N1N=C(C(F)(F)F)CC1(O)c1ccc(Cl)cc1 (centres unmarked) [Compound 105]

IC50 (human Edg-1 receptors [2]; [6]): 1.74 µM
Molecule: CCc1ccc(C2=NN(C(=O)c3cccnc3)C(O)(C(F)(F)F)C2)cc1 (centres unmarked) [Compound 106]

IC50 (human Edg-1 receptors [2]; [6]): 4.58 µM
Molecule: Nc1ccc(C(=O)N2N=C(C(F)(F)F)CC2(O)c2ccc(Br)cc2)cc1 (centres unmarked) [Compound 110]

IC50 (human Edg-1 receptors [2]; [6]): 5.92 µM
Molecule: O=C(c1cccnc1)N1N=C(c2ccc(F)cc2)CC1(O)C(F)(F)F (centres unmarked) [Compound 112]

IC50 (human Edg-1 receptors [2]; [6]): 6.02 µM
Molecule: O=C(c1ccccc1F)N1N=C(C(F)(F)F)CC1(O)c1ccc(Cl)cc1 (centres unmarked) [Compound 113]

The next lines start with the molecule.

Molecule: COc1cc2c(cc1OC)[C@H]1CN3CCc4cc(OC)c(OC)cc4[C@H]3CN1CC2 [Compound 103]
Fold Selectivity (human Edg-1 receptors [1]): >27.0 Fold
IC50 (Edg-5): > 20 µM
IC50 (Edg-6): > 20 µM
IC50 (Edg-7): > 20 µM
IC50 (Edg-3): > 20 µM
IC50 (human Edg-1 receptors [2]; Table 2, inhibition of S1P response, read-out: Edg 1 IC50): 0.74 µM
IC50 (Edg-8): > 20 µM
IC50 (Edg-2): > 20 µM
IC50 (Edg-4): > 20 µM

Molecule: O=C(c1cccnc1)N1N=C(c2ccccc2)CC1(O)C(F)(F)F (centres unmarked) [Compound 107]
IC50 (human Edg-1 receptors [2]; [6]): 3.51 µM

Molecule: Nc1ccc(C(=O)N2N=C(c3ccccc3)CC2(O)C(F)(F)F)cc1 (centres unmarked) [Compound 108]
IC50 (human Edg-1 receptors [2]; [6]): 3.56 µM

Molecule: Nc1ccc(C(=O)N2N=C(c3ccc(F)cc3)CC2(O)C(F)(F)F)cc1 (centres unmarked) [Compound 109]
IC50 (human Edg-1 receptors [2]; [6]): 3.94 µM

Molecule: O=C(c1ccccc1)N1N=C(c2ccccc2)CC1(O)C(F)(F)F (centres unmarked) [Compound 111]
IC50 (human Edg-1 receptors [2]; [6]): 5.08 µM

Molecule: Cc1c(-c2ccccc2)nc2ccccc2c1C(=O)NCc1ccc(F)cc1 [Compound 301, 3-Methyl-2-phenyl-quinoline-4-carboxylic acid 4-fluoro-benzylamide, reference compound]
inhibition of S1P-stimulated chemotaxis [3]: inhibit S1P-stimulated chemotaxis

Molecule: CCCCCCCCCCCCC/C=C/[C@@H](O)[C@@H](N)COP(=O)(O)O [Compound S1P, sphingosine-1-phosphate, reference compound]
migration of human peripheral blood mononuclear cells [4]: attracts human PMBCs in a dose dependent manner
stimulation of T cell migration by stimulant alone (mouse T cells): do not stimulate T cell migration
effect on chemotaxis of murine CD4 T cells to exodus-2 (murine CD4 T cells; low and high concentrations desensitize, moderate stimulate, FIG. 11): bell-shaped dose dependant response curve
migration of treated lymphocytes to exodus-2 in dorsal air-pouch [5]: desensitizes the lymphocytes to attraction by exodus-2

Molecule: CCCCCCCCc1ccc(CCC(N)(CO)CO)cc1 [FTY720, reference compound]
effect on S1P-mediated desensitization of the chemotactic response to exodus-2 (murine CD4 T cells; high concentrations of S1P, FIG. 12): reverse S1P-mediated desensitization
effect on S1P-mediated stimulation of the chemotactic response to exodus-2 (murine CD4 T cells; moderate concentrations of S1P, FIG. 12): inhibit S1P-mediated stimulation

B1: exodus-2: cytokine, chemoattractant for lymphocytes (protein, UniProt O00585 24-134, looked up)
C-C motif chemokine 21: SDGGAQDCCLKYSQRKIPAKVVRSYRKQEPSLGCSIPAILFLPRKRSQAELCADPKELWVQQLMQHLDKTPSPQKPAQGCRKDRGASKTGKKGKGSKGCKRTERSQTPKGP
stimulation of T cell migration by stimulant alone (mouse T cells): does stimulate T cell migration
